The values that follow come from paper PMC9970268 (Cancer Research Communications, 2022).

The subject of one data set is PAK1/2/3. The data set is described as follows: Western blot of PAK phosphorylation in MDA-MB-231 cells. Type of data set: cell-based, human. The settings on record: MDA-MB-231, 250 nmol/L. The text has this: Total cell lysates or pulldowns were Western blotted using routine procedures. The primary antibodies used were anti-Rac (Cell Signaling Technology), anti-Cdc42 (Abcam), anti-PAK1+PAK2+PAK3 (Cell Signaling Technology), anti-pPAK1 (T423)/PAK2 (T402; Abcam), anti-PAK1 + PAK2 + PAK3 (phospho T423; Abcam), Rac1B, and β-actin (Millipore-Sigma).
(In general: In western blotting, separated proteins are transferred to a membrane and probed.)

A further data set in a line: GLP toxicity studies. The settings on record: GLP data from a Contact Research Organization; rodents or dogs.
For another data set, the system named is MCF10A cells. The experiment in a line: Cell viability (MTT) assay. Type of data set: cell-based, human. The settings on record: for inhibition of cell viability: 250 nmol/L, 120 hr; for GI50: Homo sapiens, MCF-10A, 120 hours, 0 to 1,000 nmol/L. The procedure: (§1) Using CellTiter 96 Non-Radioactive Cell Proliferation Assay (Promega, Corp.) according to manufactures’ instructions, formazan was used as an indicator of viable cells at an absorbance 570 nm in a Tecan Microplate Reader M100 (Tecan). Data were calculated as fold change from vehicle and transformed to logarithm base 10. 0 concentration was replaced with 1 nmol/L to fit using the 4-parameter logic nonlinear regression model in GraphPad Prism software. (n = 3 biologic replicates: with three technical replicates each).
(§2) All half maximal growth inhibitory concentration (GI50) values were determined by using the 4-parameter logistic curve model in GraphPad Prism 9 software. Statistical analyses were done also using GraphPad Prism 9 software, and differences were considered statistically significant at P ≤ 0.05 using ordinary one-way ANOVA or unpaired Student t test with Dunnet multiple comparison tests.

The subject of data set [1] is MDA-MB-231 cells. The data set is described as follows: Cell viability (MTT) assay. The settings on record: for inhibition of cell viability: 250 nmol/L, 120 hr; for GI50: 120 hours, 0 to 1,000 nmol/L. It is filed as cell-based, human. The procedure:
as §1, §2

The test system of the next data set is GFP-HER2-BM cells. The data set is described as follows: Cell viability (MTT) assay. It is filed as cell-based, human. Particulars: for GI50: 0 to 1,000 nmol/L. How it is done: as §1, §2
The test system of another data set is MCF7 breast cancer cells. The experiment in a line: Cell viability (MTT) assay. Type of data set: cell-based, human. Particulars: 250 nmol/L, 120 hr. The procedure: as §1
Supplementary Figure S1. Percentage cell viability of MDA-MB-231, GFP-HER2-BM, […]
nM for 120 hr. The bar graphs are presented as individual fold change data points from vehicle and grouped mean ± SEM. (n = 3; *, P < 0.05; ** P < 0.01).
(1 picture or pasted object on this page, not shown here)

Data set [2] has as its system MDA-MB-231 cells. The data set is described as follows: Wound healing assay. Particulars: 250 nmol/L; 12 and 24 hours. It is filed as cell-based, human. How it is done:
MDA-MB-231 cells were plated on 12-well plates at equal cell density until confluent. Then the media was changed to 1% FBS, and a single scratch was made in the center of the monolayer culture with a pipet tip. Compounds were added immediately at 250 or 500 nmol/L and images were digitally acquired from a Keyence microscope (10×) at 0, 12, and 24 hours. The scratch area was quantified in ImageJ using the Macro Wound Healing Tool (http://dev.mri.cnrs.fr/projects/imagej-macros/wiki/Wound_Healing_Tool; n = 3 biologic replicates: with three technical replicates each).

Another data set deals with Rho. The experiment in a line: Rho activation assay (Rho.GTP-binding domain of Rhotekin). It is filed as cell-based, human. Particulars: 250 nmol/L. The source says:
Cells were lysed and equal amounts of proteins were subjected to pulldown assays using the p21-binding domain of PAK to isolate the GTP bound Rac1 or Cdc42. […] Top, Pulldown showing GTP bound Rac1; Middle, Total Rac1 in lysates; Bottom, Actin as a loading control. B, Right, Results from positive bands in Western blots quantified using ImageJ. […] Top band, Rac1B.GTP from the pulldown; Middle band, Total Rac1B from cell lysates; Bottom band, Actin (N = 3). […] Top, Pulldown showing GTP bound Cdc42; Middle, Total Cdc42 in lysates; Bottom, Actin as a loading control. E, Right, Results from positive bands in Western blots quantified using ImageJ. […] (n = 3–4; *, P < 0.05; **, P < 0.01; ns, not significant). Error bars represent SEM. […] Rho activation assay was done using the Rho.GTP-binding domain of Rhotekin. […] Cells were lysed and Western blotted for total and active PAK. Left, Top, Cell lysates probed with an anti PAK1/2/3 antibody; second, Western blot analysis with anti phospho (p)-PAK (1/2/3)^Ser141,144,154; third, Western blot analysis with p-PAK (1/2/3)^Thr423; fourth, Anti actin. H, Fold change in p-PAK/PAK for PAK 1/3 (68 kD) for total p-PAK^Ser141,144,154 and p-PAK^Thr423. (n = 3; **, P < 0.01; ***, P < 0.001; ns, not significant). […] Tumor lysates were Western blotted with antibodies specific for Rac1, Cdc42, PAK1/2/3, p-PAK (1/2/3)^Ser141,144,154, or p-PAK^Thr423. […]

Another data set relates to A549 lung cancer cells. The experiment in a line: EGF-induced ruffle formation. It is filed as cell-based, human. The settings on record: 24 hours, then EGF 200 ng/mL; for loss in ruffles: 500 nmol/L; for decrease in ruffles: 1,000 nmol/L. How it is done:
Cells were fixed with 4% formaldehyde and F-actin stained with rhodamine phalloidin. Slides were visualized by fluorescence microscopy and five random fields were scored for the number of ruffles. Ruffle area was measured by thresholding for single intensity using ImageJ/Fiji software, as in ref. [29].

Data set [3] deals with T1, Cdc42(G15A) interaction with Ect2 (Homo sapiens, UniProt P60953, G15A).
T1 construct: purchased Cell Biolabs; host or cells: GEF from MDA-MB-231 lysate
The data set is described as follows: Cdc42 (G15A) pulldown assay, Ect2. It is filed as binding. The settings on record: 250 nmol/L, 1 hour preincubation, MDA-MB-231 cell lysates. How it is done:
MDA-MB-231 cells were lysed in 1% Triton X-100, 20 mmol/L HEPES, pH 7.4, 150 mmol/L NaCl, 5 mmol/L MgCl2, and protease inhibitors, and processed as described previously ([20]). Equal amounts of protein from cleared lysates were incubated for 1 hour at 4°C with glutathione-agarose beads conjugated to GST-Rac1 and GST-Cdc42(G15A) nucleotide-free mutant (Cell Biolabs) that were preincubated (for 1 hour) with vehicle or Rac/Cdc42 inhibitors, as indicated. The beads were washed, and pulldowns were immunoblotted for Vav2 or Ect2.

T1 sequence (P60953 whole entry G15A): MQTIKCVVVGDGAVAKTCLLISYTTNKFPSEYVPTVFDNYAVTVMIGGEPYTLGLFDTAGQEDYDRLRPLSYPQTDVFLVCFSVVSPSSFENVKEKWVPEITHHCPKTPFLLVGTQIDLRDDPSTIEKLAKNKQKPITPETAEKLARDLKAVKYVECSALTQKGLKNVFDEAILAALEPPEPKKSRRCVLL

For the molecule `CCn1c2ccccc2c2cc(-n3nncc3-c3ccccc3)ccc21` [MBQ-167], the “reduction of p-PAK1/3 levels (Thr423)” value in the data set on PAK1/2/3 was “approximately 75%”. For the same molecule, in the data set with PAK1/2/3, the “reduction of p-PAK2 S144 (61 kD band)” value is “approximately 50%”. Moreover, the “reduction of p-PAK2 T423 (61 kD band)” value in the data set on PAK1/2/3 was “approximately 60%”. In the data set “GLP toxicity studies”, the “dose with no apparent toxicity” value is “up to 1,000 mg/kg”. Also, the “inhibition of cell viability” value in the data set with MCF10A cells was 30%; with MDA-MB-231 cells [1], 50%; in the data set on GFP-HER2-BM cells (250 nmol/L, 120 hr), “approximately 85%”; in the data set with GFP-HER2-BM cells (500 nmol/L, 72 hours), “approximately 75%”; with MCF7 breast cancer cells, 40%. Further, the GI50 in the data set on MCF10A cells is 0.296 µM; in the data set with MDA-MB-231 cells [1] it was roughly 0.16 µM; with MDA-MB-231 cells [1] (Homo sapiens, MDA-MB-231, 120 h), 0.162 µM; in the data set on GFP-HER2-BM cells (120 hours), roughly 0.16 µM; in the data set with GFP-HER2-BM cells (Homo sapiens, 120 h), 0.163 µM. The wound closure entry with MDA-MB-231 cells [2] is “wound area was maintained at 12 and 24 hours”. For the same molecule, in the data set with Rho, the Rho activation entry is given as “do not affect”. Besides, in the data set on A549 lung cancer cells, the loss in ruffles turned out to be 54%. In the data set on A549 lung cancer cells, this molecule showed a decrease in ruffles of 63%. For the same molecule, in data set [3], the “Cdc42(G15A) interaction with Ect2” value was “no effect”.
For the molecule `CCn1c2ccccc2c2cc(-n3nncc3-c3cccc(OC)c3)ccc21` [MBQ-168], in the data set with PAK1/2/3, the “decrease of p-PAK ser 141, 154, PAK1/3 (68 kD band)” value was “approximately 95%”. Also, the “reduction of p-PAK1/3 levels (Thr423)” value in the data set on PAK1/2/3 is listed as “approximately 100%”. For the same molecule, the “reduction of p-PAK2 S144 (61 kD band)” value with PAK1/2/3 is listed as “approximately 50%”. Moreover, the “reduction of p-PAK2 T423 (61 kD band)” value in the data set with PAK1/2/3 was “approximately 100%”. Also, the “inhibition of cell viability” value is 30% in the data set with MCF10A cells; 50% in the data set on MDA-MB-231 cells [1]; “approximately 85%” with GFP-HER2-BM cells (250 nmol/L, 120 hr); “approximately 75%” in the data set with GFP-HER2-BM cells (500 nmol/L, 72 hours); 40% in the data set with MCF7 breast cancer cells. Besides, the GI50 in the data set with MCF10A cells turned out to be 0.304 µM; in the data set with MDA-MB-231 cells [1] (Homo sapiens, MDA-MB-231), 0.199 µM; in the data set with GFP-HER2-BM cells (Homo sapiens, 120 hours) it was 0.171 µM. The wound closure entry in the data set on MDA-MB-231 cells [2] was “wound area was maintained at 12 and 24 hours”. Further, the Rho activation entry in the data set on Rho is reported as “do not affect”. For the same molecule, the loss in ruffles in the data set on A549 lung cancer cells is on record as 67%. Further, in the data set with A549 lung cancer cells, the decrease in ruffles is given as 79%. In addition, the “Cdc42(G15A) interaction with Ect2” value in data set [3] was “no effect”.

In general, GI50 refers to the concentration giving 50% growth inhibition. A lower GI50 goes with greater sensitivity of the cells.
